Among the data in PubChem BioAssay AID602205 (Sanford-Burnham Center for Chemical Genomics, 2012) are IC50 values, retold here.

The source made the active and inactive calls. How the calls were made is not given here.

The target of the assay is Ubiquitin-conjugating enzyme E2 N (Homo sapiens) (UniProt P61088). The assay is described as follows: inhibition of UBC13-driven polyubiquitin chain formation – biochemical, TR-FRET, set 3, SAR follow-up (AID 602205). Particulars: TR-FRET polyubiquitination assay.
Chain of Ubiquitin-conjugating enzyme E2 N (Homo sapiens) (P61088 whole entry, looked up): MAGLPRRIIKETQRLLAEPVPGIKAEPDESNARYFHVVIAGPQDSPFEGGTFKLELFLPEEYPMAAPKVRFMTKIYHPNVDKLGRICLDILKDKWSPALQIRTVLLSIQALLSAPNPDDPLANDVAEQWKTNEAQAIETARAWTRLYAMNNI

Consider `c1ccc(CN2CCN(c3ncnc4c3nc3n4CCCC3)CC2)cc1`, for which the IC50 was > 100 µM (inactive). For `c1nc(N2CCC(N3CCCCC3)CC2)c2nc3n(c2n1)CCCC3`, the IC50 was > 100 µM (inactive). As to `Fc1ccccc1N1CCN(c2ncnc3c2nc2n3CCCC2)CC1`, the IC50 is > 100 µM (inactive).

Regarding `O=C(CCCCCN1C(=O)c2ccccc2C1=O)NCCc1ccccc1`, the IC50 is > 100 µM (inactive). With `COc1cc(Cl)c(C)cc1NC(=O)C1CCN(c2ncnc3c2nc2n3CCCCC2)CC1`, the IC50 is > 100 µM (inactive).

`O=C(Nc1cc(F)ccc1F)C1CCN(c2ncnc3c2nc2n3CCCCC2)CC1`: the IC50 entry is “inactive”. On to `COc1cc(OC)c(NC(=O)C2CCN(c3ncnc4c3nc3n4CCCCC3)CC2)cc1Cl`, for which the IC50 is > 100 µM (inactive). As for `COc1ccc(NC(=O)C2CCN(c3ncnc4c3nc3n4CCCCC3)CC2)cc1Cl`, the IC50 is > 100 µM (inactive).

`Cc1ccc(NC(=O)C2CCN(c3ncnc4c3nc3n4CCCCC3)CC2)c(Cl)c1`: the IC50 is > 100 µM (inactive). As for `CCOc1ccc(CCNC(=O)CCCCCN2C(=O)c3ccccc3C2=O)cc1OCC`, the IC50 is > 100 µM (inactive). For `O=C(Nc1ccc(CN2CCCCC2)cc1)C1CCN(c2ncnc3c2nc2n3CCCCC2)CC1`, the IC50 was > 100 µM (inactive). For the compound `Cc1c(Cl)cccc1NC(=O)C1CCN(c2ncnc3c2nc2n3CCCCC2)CC1`, the IC50 entry was “inactive”. Then `Cc1ccc(NC(=O)C2CCN(c3ncnc4c3nc3n4CCCCC3)CC2)cc1F`, with “inactive”; and `CC1CN(S(=O)(=O)c2ccc(NC(=O)CCCCCN3C(=O)c4ccccc4C3=O)cc2)CC(C)O1` (centres undefined), with > 100 µM (inactive). As to `O=C(Nc1cccc(Cl)c1)C1CCN(c2ncnc3c2nc2n3CCCCC2)CC1`, the IC50 was 9.63 µM. Regarding `COc1ccc(Cl)cc1NC(=O)C1CCN(c2ncnc3c2nc2n3CCCCC2)CC1`, the IC50 entry was “inactive”. Regarding `Cc1cc(Cl)ccc1NC(=O)C1CCN(c2ncnc3c2nc2n3CCCCC2)CC1`, the IC50 entry is “inactive”.

For the compound `Cc1ccc(Cl)cc1N1CCN(c2ncnc3c2nc2n3CCCC2)CC1`, the IC50 was > 100 µM (inactive).

Regarding `Cc1ccc(NC(=O)C2CCN(c3ncnc4c3nc3n4CCCCC3)CC2)cc1C`, the IC50 entry is “inactive”.
